We go through 17 compounds from patent publication US9108983B2, “Pyrrole compounds, a process for their preparation and pharmaceutical compositions containing them” (LES LABORATOIRES SERVIER, priority 2013, dated 2015).

Counter-ions that a name gives are not always drawn. Like-named read-outs stand apart in the source and are kept apart here. Some results are limits rather than exact numbers.

One assay addresses Bcl-2 protein (histag-Bcl-2, UniProtKB P10415) (Homo sapiens (Human), UniProt P10415). The assay is described as follows: Inhibition of Bcl-2 by the fluorescence polarisation technique. Format: binding. The note with it: incubation for 2 hours, read-out: IC50 (nM) Bcl-2 FP. The essentials:
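In pH 7.4 buffer (Hepes 10 mM, NaCl 150 mM, Tween20 0.05%), test compounds at increasing concentrations competed with a fluorescein peptide (1.00×10^−8 M final) for histag-Bcl-2 (2.50×10^−8 M final). Readout was fluorescence polarisation after a 2 h incubation.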

The test system of assay [1] is RS4;11 leukaemia tumour line. The assay is described as follows: In vitro cytotoxicity (Microculture Tetrazolium Assay). It is filed as cell-based. As to conditions: RS4;11 cells, exposed for 48 hours, cell viability, read-out: IC50 (nM) MTT RS4;11. The method, then: The cytotoxicity studies were carried out on the RS4;11 leukaemia tumour line.
The cells are distributed onto microplates and exposed to the test compounds for 48 hours.
The cell viability is then quantified by a colorimetric assay, the Microculture Tetrazolium Assay (Cancer Res., 1987, 47, 939-942).

Sequence of Bcl-2 protein (P10415 whole entry): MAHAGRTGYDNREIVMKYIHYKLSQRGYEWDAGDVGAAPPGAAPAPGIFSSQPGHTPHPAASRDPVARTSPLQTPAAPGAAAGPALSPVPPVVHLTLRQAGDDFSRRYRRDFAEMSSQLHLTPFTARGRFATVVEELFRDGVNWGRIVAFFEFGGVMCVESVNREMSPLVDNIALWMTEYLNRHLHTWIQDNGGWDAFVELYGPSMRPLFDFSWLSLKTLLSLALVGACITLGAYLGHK

By IC50 is commonly meant the concentration that gives 50% inhibition. Consider `Cc1c(C(=O)N(c2ccc(O)cc2)c2cc(C#N)n(C)c2)cc(-c2ccccc2C(=O)N2Cc3ccccc3C[C@H]2CN2CCOCC2)n1C` [Example 433, N-(5-Cyano-1-methyl-1H-pyrrol-3-yl)-N-(4-hydroxyphenyl)-1,2-dimethyl-5-(2-{[(3S)-3-(morpholin-4-ylmethyl)-3,4-dihydroisoquinolin-2(1H)-yl]carbonyl}phenyl)-1H-pyrrole-3-carboxamide hydrochloride], for which the IC50 is 2.6 nM at Bcl-2 protein and 48.2 nM in assay [1] (Homo sapiens, RS4-11, 48 h).

With `Cc1c(C(=O)N(c2ccc(O)cc2)c2cnc3c(c2)CCN3C)cc(-c2cc(F)ccc2C(=O)N2Cc3ccccc3C[C@H]2CN2CCOCC2)n1C` [Example 434, 5-(5-Fluoro-2-{[(3S)-3-(morpholin-4-ylmethyl)-3,4-dihydroisoquinolin-2(1H)-yl]carbonyl}phenyl)-N-(4-hydroxyphenyl)-1,2-dimethyl-N-(1-methyl-2,3-dihydro-1H-pyrrolo[2,3-b]pyridin-5-yl)-1H-pyrrole-3-carboxamide hydrochloride], the IC50 on Bcl-2 protein was 3.5 nM; in assay [1] (Homo sapiens, RS4-11, 48 h), 45.7 nM.

On to `COc1cc(C(=O)N2Cc3ccccc3C[C@H]2CN2CCOCC2)c(-c2cc(C(=O)N(c3ccc(O)cc3)c3cc(C#N)ccn3)c(C)n2C)cc1F` [Example 435, N-(4-Cyanopyridin-2-yl)-5-(5-fluoro-4-methoxy-2-{[(3S)-3-(morpholin-4-ylmethyl)-3,4-dihydroisoquinolin-2(1H)-yl]carbonyl}phenyl)-N-(4-hydroxyphenyl)-1,2-dimethyl-1H-pyrrole-3-carboxamide hydrochloride], for which the IC50 on Bcl-2 protein is 14.9 nM; in assay [1] (Homo sapiens, RS4-11, 48 h), 441 nM.

Consider `Cc1c(C(=O)N(c2ccc(O)cc2)c2ccc(C#N)s2)cc(-c2cc(Cl)ccc2C(=O)N2Cc3ccccc3C[C@H]2CN2CCOCC2)n1C` [Example 436, 5-(5-Chloro-2-{[(3S)-3-(morpholin-4-ylmethyl)-3,4-dihydroisoquinolin-2(1H)-yl]carbonyl}phenyl)-N-(5-cyanothiophen-2-yl)-N-(4-hydroxyphenyl)-1,2-dimethyl-1H-pyrrole-3-carboxamide hydrochloride], for which the IC50 on Bcl-2 protein is 49.1 nM; in assay [1] (Homo sapiens, RS4-11, 48 h) it was 338 nM.

Turning to `Cc1c(C(=O)N(c2ccc(O)cc2)c2ccc(F)c(C#N)c2)cc(-c2cc(F)ccc2C(=O)N2Cc3ccccc3C[C@H]2CN2CCOCC2)n1C` [Example 437, N-(3-Cyano-4-fluorophenyl)-5-(5-fluoro-2-{[(3S)-3-(morpholin-4-ylmethyl)-3,4-dihydroisoquinolin-2(1H)-yl]carbonyl}phenyl)-N-(4-hydroxyphenyl)-1,2-dimethyl-1H-pyrrole-3-carboxamide hydrochloride], the IC50 at Bcl-2 protein amounted to 4.4 nM; in assay [1] (Homo sapiens, RS4-11, 48 h) it was 70.5 nM.

As for `Cc1c(C(=O)N(c2ccc(O)cc2)c2cnccn2)cc(-c2cc(Cl)ccc2C(=O)N2Cc3ccccc3C[C@H]2CN2CCOCC2)n1C` [Example 438, 5-(5-Chloro-2-{[(3S)-3-(morpholin-4-ylmethyl)-3,4-dihydroisoquinolin-2(1H)-yl]carbonyl}phenyl)-N-(4-hydroxyphenyl)-1,2-dimethyl-N-(pyrazin-2-yl)-1H-pyrrole-3-carboxamide hydrochloride], the half-inhibitory concentration (IC50) stood at 11.3 nM at Bcl-2 protein and 379 nM in assay [1] (Homo sapiens, RS4-11, 48 h).

Take `COc1ncc(N(C(=O)c2cc(-c3cc(F)c(OC)cc3C(=O)N3Cc4ccccc4C[C@H]3CN3CCOCC3)n(C)c2C)c2ccc(O)cc2)cn1` [Example 439, 5-(5-Fluoro-4-methoxy-2-{[(3S)-3-(morpholin-4-ylmethyl)-3,4-dihydroisoquinolin-2(1H)-yl]carbonyl}phenyl)-N-(4-hydroxyphenyl)-N-(2-methoxypyrimidin-5-yl)-1,2-dimethyl-1H-pyrrole-3-carboxamide hydrochloride]: the half-inhibitory concentration (IC50) on Bcl-2 protein is 6.1 nM; in assay [1] (Homo sapiens, RS4-11, 48 h), 329 nM.

With `COc1cc(C(=O)N2Cc3ccccc3C[C@H]2CN2CCOCC2)c(-c2cc(C(=O)N(c3ccc(O)cc3)c3cc(C#N)n(C)c3C)c(C)n2C)cc1F` [Example 440, N-(5-Cyano-1,2-dimethyl-1H-pyrrol-3-yl)-5-(5-fluoro-4-methoxy-2-{[(3S)-3-(morpholin-4-ylmethyl)-3,4-dihydroisoquinolin-2(1H)-yl]carbonyl}phenyl)-N-(4-hydroxyphenyl)-1,2-dimethyl-1H-pyrrole-3-carboxamide hydrochloride], the 50% inhibitory concentration (IC50) on Bcl-2 protein amounted to 2.6 nM; in assay [1] (Homo sapiens, RS4-11, 48 h), 13.6 nM.

Take `Cc1c(N(C(=O)c2cc(-c3cc(Cl)ccc3C(=O)N3Cc4ccccc4C[C@H]3CN3CCOCC3)n(C)c2C)c2ccccc2)cc(C#N)n1C` [Example 441, 5-(5-Chloro-2-{[(3S)-3-(morpholin-4-ylmethyl)-3,4-dihydroisoquinolin-2(1H)-yl]carbonyl}phenyl)-N-(5-cyano-1,2-dimethyl-1H-pyrrol-3-yl)-1,2-dimethyl-N-phenyl-1H-pyrrole-3-carboxamide hydrochloride]: the IC50 was determined as 3.5 nM on Bcl-2 protein and 132 nM in assay [1] (Homo sapiens, RS4-11, 48 h).

As to `Cc1c(C(=O)N(c2ccc(O)cc2)c2csc(C#N)c2)cc(-c2cc(Cl)ccc2C(=O)N2Cc3ccccc3C[C@H]2CN2CCOCC2)n1C` [Example 442, 5-(5-Chloro-2-{[(3S)-3-(morpholin-4-ylmethyl)-3,4-dihydroisoquinolin-2(1H)-yl]carbonyl}phenyl)-N-(5-cyanothiophen-3-yl)-N-(4-hydroxyphenyl)-1,2-dimethyl-1H-pyrrole-3-carboxamide hydrochloride], the IC50 is 3 nM on Bcl-2 protein and 42.8 nM in assay [1] (Homo sapiens, RS4-11, 48 h).

For `COc1cnc(N(C(=O)c2cc(-c3cc(Cl)ccc3C(=O)N3Cc4ccccc4C[C@H]3CN3CCOCC3)n(C)c2C)c2ccc(O)cc2)cn1` [Example 444, 5-(5-Chloro-2-{[(3S)-3-(morpholin-4-ylmethyl)-3,4-dihydroisoquinolin-2(1H)-yl]carbonyl}phenyl)-N-(4-hydroxyphenyl)-N-(5-methoxypyrazin-2-yl)-1,2-dimethyl-1H-pyrrole-3-carboxamide hydrochloride], the IC50 on Bcl-2 protein turned out to be 5.5 nM; in assay [1] (Homo sapiens, RS4-11, 48 h) it was 181 nM.

On to `Cc1c(C(=O)N(c2ccc(O)cc2)c2cnc3c(c2)CCN3C)cc(-c2cc(Cl)ccc2C(=O)N2Cc3ccccc3C[C@H]2CN2CCOCC2)n1C` [Example 445, 5-(5-Chloro-2-{[(3S)-3-(morpholin-4-ylmethyl)-3,4-dihydroisoquinolin-2(1H)-yl]carbonyl}phenyl)-N-(4-hydroxyphenyl)-1,2-dimethyl-N-[1-(trideuteriomethyl)-2,3-dihydro-H-pyrrolo[2,3-b]pyridin-5-yl]-1H-pyrrole-3-carboxamide hydrochloride], for which the IC50 on Bcl-2 protein (hydrochloride) amounted to 2 nM; in assay [1] (hydrochloride) it was 19 nM.

In the case of `Cc1c(C(=O)N(c2ccc(O)cc2)c2cnc(F)cn2)cc(-c2cc(Cl)ccc2C(=O)N2Cc3ccccc3C[C@H]2CN2CCOCC2)n1C` [Example 446, 5-(5-Chloro-2-{[(3S)-3-(morpholin-4-ylmethyl)-3,4-dihydroisoquinolin-2(1H)-yl]carbonyl}phenyl)-N-(5-fluoropyrazin-2-yl)-N-(4-hydroxyphenyl)-1,2-dimethyl-1H-pyrrole-3-carboxamide hydrochloride], the IC50 on Bcl-2 protein turned out to be 7.8 nM; in assay [1] (Homo sapiens, RS4-11, 48 h), 249 nM.

As for `Cc1c(C(=O)N(c2ccc(O)cc2)c2cnn(C)c2)cc(-c2ccc(F)cc2C(=O)N2Cc3ccccc3C[C@H]2CN2CCOCC2)n1C` [Example 447, 5-(4-Fluoro-2-{[(3S)-3-(morpholin-4-ylmethyl)-3,4-dihydroisoquinolin-2(1H)-yl]carbonyl}phenyl)-N-(4-hydroxyphenyl)-1,2-dimethyl-N-(1-methyl-1H-pyrazol-4-yl)-1H-pyrrole-3-carboxamide hydrochloride], the IC50 at Bcl-2 protein was 20 nM; in assay [1] (Homo sapiens, RS4-11, 48 h), over 600 nM.

Consider `Cl.[2H]C([2H])([2H])n1cc(N(C(=O)c2cc(-c3cc(Cl)ccc3C(=O)N3Cc4ccccc4C[C@H]3CN3CCOCC3)n(C)c2C)c2ccc(O)cc2)cc1C#N` [Example 448, 5-(5-Chloro-2-{[(3S)-3-(morpholin-4-ylmethyl)-3,4-dihydroisoquinolin-2(1H)-yl]carbonyl}phenyl)-N-[5-cyano-1-(trideuteriomethyl)-1H-pyrrol-3-yl]-N-(4-hydroxyphenyl)-1,2-dimethyl-1H-pyrrole-3-carboxamide hydrochloride], for which the concentration for half-maximal inhibition (IC50) on Bcl-2 protein amounted to 2.4 nM; in assay [1] (Homo sapiens, RS4-11, 48 h), 12.1 nM.

Turning to `Cc1c(C(=O)N(c2ccc(O)cc2)c2cc(C#N)nn2C)cc(-c2cc(Cl)ccc2C(=O)N2Cc3ccccc3C[C@H]2CN2CCOCC2)n1C` [Example 450, 5-(5-Chloro-2-{[(3S)-3-(morpholin-4-ylmethyl)-3,4-dihydroisoquinolin-2(1H)-yl]carbonyl}phenyl)-N-(3-cyano-1-methyl-1H-pyrazol-5-yl)-N-(4-hydroxyphenyl)-1,2-dimethyl-1H-pyrrole-3-carboxamide hydrochloride], the IC50 on Bcl-2 protein is 2.7 nM; in assay [1] (Homo sapiens, RS4-11, 48 h), 53.2 nM.

`Cc1c(C(=O)N(c2ccc(O)cc2)c2cnc3c(cnn3C)c2)cc(-c2cc(F)ccc2C(=O)N2Cc3ccccc3C[C@H]2CN2CCOCC2)n1C` [Example 451, 5-(5-Fluoro-2-{[(3S)-3-(morpholin-4-ylmethyl)-3,4-dihydroisoquinolin-2(1H)-yl]carbonyl}phenyl)-N-(4-hydroxyphenyl)-1,2-dimethyl-N-(1-methyl-1H-pyrazolo[3,4-b]pyridin-5-yl)-1H-pyrrole-3-carboxamide hydrochloride]: the concentration for half-maximal inhibition (IC50) on Bcl-2 protein stood at 2.9 nM; in assay [1] (Homo sapiens, RS4-11, 48 h) it was 102 nM.
